Measurements taken from patent US9296725B2, “Heterocyclyl pyrimidine analogues as TYK2 inhibitors” (Cellzome Limited, priority 2012, dated 2016).
Read-outs that look alike come from different tables or passages of the source.

Assays:
[1] = target: T1, JAK2 (Homo sapiens, UniProt O60674); assay: Kinobeads assay, JAK2 (competition binding in mixed Molt4/Ramos cell lysate, dot blot detection); conditions: read-out: JAK2 Band (Kinobeads assay potency, IC50)
T1 construct: endogenous in cells; host or cells: Molt4 (ATCC CRL-1582) and Ramos (ATCC CRL-1596), mixed lysate 1:2
T1 sequence (O60674 whole entry): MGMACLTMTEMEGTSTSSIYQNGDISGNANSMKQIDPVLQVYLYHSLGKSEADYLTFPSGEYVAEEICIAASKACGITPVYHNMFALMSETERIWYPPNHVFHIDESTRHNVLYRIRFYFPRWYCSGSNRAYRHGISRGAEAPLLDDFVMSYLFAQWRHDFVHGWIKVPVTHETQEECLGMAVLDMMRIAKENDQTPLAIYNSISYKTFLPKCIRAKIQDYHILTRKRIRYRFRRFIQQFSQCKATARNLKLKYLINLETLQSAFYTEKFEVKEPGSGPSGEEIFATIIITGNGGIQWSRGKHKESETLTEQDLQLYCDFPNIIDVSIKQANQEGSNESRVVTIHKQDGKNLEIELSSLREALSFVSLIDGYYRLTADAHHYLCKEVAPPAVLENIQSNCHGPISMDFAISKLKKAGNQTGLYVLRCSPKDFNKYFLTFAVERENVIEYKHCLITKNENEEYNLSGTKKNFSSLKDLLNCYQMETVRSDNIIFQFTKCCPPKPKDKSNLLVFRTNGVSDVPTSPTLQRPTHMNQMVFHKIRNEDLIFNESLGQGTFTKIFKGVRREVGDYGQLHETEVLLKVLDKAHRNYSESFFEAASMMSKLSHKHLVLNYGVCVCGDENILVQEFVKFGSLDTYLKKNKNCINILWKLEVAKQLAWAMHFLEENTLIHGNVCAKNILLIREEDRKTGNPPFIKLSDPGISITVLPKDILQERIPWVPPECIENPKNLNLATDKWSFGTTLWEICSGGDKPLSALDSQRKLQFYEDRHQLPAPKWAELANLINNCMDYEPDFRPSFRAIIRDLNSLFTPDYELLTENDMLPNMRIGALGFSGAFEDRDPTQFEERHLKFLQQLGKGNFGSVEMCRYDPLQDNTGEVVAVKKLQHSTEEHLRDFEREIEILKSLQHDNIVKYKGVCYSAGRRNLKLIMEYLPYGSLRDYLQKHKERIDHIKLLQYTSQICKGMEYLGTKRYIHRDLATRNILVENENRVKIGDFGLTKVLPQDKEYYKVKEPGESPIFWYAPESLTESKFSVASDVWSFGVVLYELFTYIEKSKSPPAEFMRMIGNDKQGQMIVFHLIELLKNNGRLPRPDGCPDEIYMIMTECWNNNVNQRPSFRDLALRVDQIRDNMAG
Summary of the method: (§1)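 JAK2 and TYK2 retained on Kinobeads (immobilized aminopyrido-pyrimidine ligand) from 1:2 Molt4:Ramos lysate (10 mg/mL) were quantified by antibody dot blot (Odyssey infrared) after 3 h cold incubation with compound. Nine-step 1:3 dilution series; IC50 calculated from curves.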

[2] = target: T2, TYK2 (Homo sapiens, UniProt P29597); assay: Kinobeads assay, TYK2 (competition binding in mixed Molt4/Ramos cell lysate, dot blot detection)
T2 construct: endogenous in cells; host or cells: Molt4 (ATCC CRL-1582) and Ramos (ATCC CRL-1596), mixed lysate 1:2
T2 sequence (P29597 whole entry): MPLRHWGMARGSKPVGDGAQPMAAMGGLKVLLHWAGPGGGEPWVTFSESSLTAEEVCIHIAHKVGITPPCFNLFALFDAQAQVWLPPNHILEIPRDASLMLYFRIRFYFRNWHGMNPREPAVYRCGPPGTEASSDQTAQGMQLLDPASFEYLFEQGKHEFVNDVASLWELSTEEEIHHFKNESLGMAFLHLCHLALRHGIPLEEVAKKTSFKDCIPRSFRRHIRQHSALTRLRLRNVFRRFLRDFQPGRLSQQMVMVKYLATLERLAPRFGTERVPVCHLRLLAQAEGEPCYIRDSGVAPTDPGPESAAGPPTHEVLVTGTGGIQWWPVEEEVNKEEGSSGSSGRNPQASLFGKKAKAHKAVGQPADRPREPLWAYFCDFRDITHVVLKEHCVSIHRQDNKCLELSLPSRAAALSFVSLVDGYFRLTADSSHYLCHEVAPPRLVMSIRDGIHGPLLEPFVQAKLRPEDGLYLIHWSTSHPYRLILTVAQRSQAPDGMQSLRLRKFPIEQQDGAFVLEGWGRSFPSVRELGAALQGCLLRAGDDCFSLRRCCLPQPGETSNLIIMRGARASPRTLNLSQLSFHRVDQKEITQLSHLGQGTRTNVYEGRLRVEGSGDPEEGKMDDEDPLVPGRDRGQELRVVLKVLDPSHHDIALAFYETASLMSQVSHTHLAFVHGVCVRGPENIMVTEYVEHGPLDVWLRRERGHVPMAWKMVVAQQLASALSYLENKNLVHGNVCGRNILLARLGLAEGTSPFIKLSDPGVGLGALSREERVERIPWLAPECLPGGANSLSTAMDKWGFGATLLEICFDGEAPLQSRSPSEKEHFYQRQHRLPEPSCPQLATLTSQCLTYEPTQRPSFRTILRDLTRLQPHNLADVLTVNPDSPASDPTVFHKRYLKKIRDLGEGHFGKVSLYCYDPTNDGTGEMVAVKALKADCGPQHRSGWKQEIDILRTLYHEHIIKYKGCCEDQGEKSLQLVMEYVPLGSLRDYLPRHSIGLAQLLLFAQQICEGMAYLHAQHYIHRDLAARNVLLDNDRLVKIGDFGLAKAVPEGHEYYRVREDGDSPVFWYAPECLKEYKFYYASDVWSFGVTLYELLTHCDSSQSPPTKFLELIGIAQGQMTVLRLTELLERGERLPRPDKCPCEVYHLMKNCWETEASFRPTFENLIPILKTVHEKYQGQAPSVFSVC
Summary of the method: as §1

[3] = Kinobeads assay, Molt4/Ramos lysate, read-out: TYK2 Band (Kinobeads assay potency, IC50)

| SMILES | IC50 [1] [nM] | IC50 [2, 3] [nM] | IC50 ([2]; read-out: TYK2 IC50) [nM] |
| --- | --- | --- | --- |
| NS(=O)(=O)c1ccc(CNc2nc(Nc3cnn(CC(=O)NC4CC4)c3)ncc2Cl)cc1 [Example I-10] | > 10000 | 10 to 100 | – |
| Cc1cnc(Nc2cnn(CC(=O)N(C)C)c2)nc1NCc1ccccc1 [Example I-300] | 1000 to 10000 | 100 to 1000 | – |
| OCCn1cc(Nc2ncc(Cl)c(NCc3ccccn3)n2)cn1 [Example I-247] | 100 to 1000 | 1000 to 10000 | – |
| O=C(Cn1cc(Nc2ncc(Cl)c(NCc3ccccc3)n2)cn1)N1CCC2(CC1)COC2 [Example I-239] | 1000 to 10000 | 100 to 1000 | – |
| OCCn1cc(Nc2ncc(Cl)c(NCc3ccc(C(F)(F)F)cc3F)n2)cn1 [Example I-245] | 10 to 100 | 1000 to 10000 | – |
| O=C(Cn1cc(Nc2ncc(Cl)c(NCc3cc(F)cc(F)c3)n2)cn1)N1CCOCC1 [Example I-162] | 10 to 100 | 10 to 100 | – |
| CNC(=O)Cn1cc(Nc2ncc(Cl)c(NCc3ccccc3F)n2)cn1 [Example I-211] | 100 to 1000 | 100 to 1000 | – |
| C[C@@H]1COCCN1C(=O)Cn1cc(Nc2ncc(F)c(NCc3c(F)cc(F)cc3F)n2)cn1 [Example I-40] | 1000 to 10000 | 10 to 100 | – |
| C[C@@H](CO)NC(=O)Cn1cc(Nc2nccc(NCc3c(F)cc(F)cc3Cl)n2)cn1 [Example I-132] | 1000 to 10000 | ≤ 10 | – |
| N#Cc1cccc(CNc2nc(Nc3cnn(CCO)c3)ncc2Cl)c1 [Example I-182] | 100 to 1000 | 10 to 100 | – |
| CN(C)CCNC(=O)Cn1cc(Nc2ncc(Cl)c(NCc3ccccc3)n2)cn1 [Example I-221] | 100 to 1000 | 100 to 1000 | – |
| NC(=O)Cn1cc(Nc2ncc(Cl)c(NCc3cc(Br)cc(F)c3F)n2)cn1 [Example I-261] | 100 to 1000 | 100 to 1000 | – |
| N#CC1CCCN1C(=O)Cn1cc(Nc2ncc(Cl)c(NCc3ccccc3)n2)cn1 (stereo not drawn) [Example I-237] | 100 to 1000 | 10 to 100 | – |
| C[C@H](CO)NC(=O)Cn1cc(Nc2nccc(NCc3c(F)ccc(F)c3F)n2)cn1 [Example I-143] | 1000 to 10000 | 10 to 100 | – |
| COc1ccc(F)c(CNc2ccnc(Nc3cnn(CC(=O)N4CCOCC4)c3)n2)c1F [Example I-117] | 1000 to 10000 | ≤ 10 | – |
| OCCn1cc(Nc2ncc(Cl)c(NCc3ncccc3F)n2)cn1 [Example I-259] | 1000 to 10000 | 10 to 100 | – |
| OCCn1cc(Nc2ncc(F)c(NCc3ccccc3)n2)cn1 [Example I-193] | 1000 to 10000 | 100 to 1000 | – |
| COc1ccc(S(C)(=O)=O)cc1CNc1nc(Nc2cnn(CC(F)F)c2)ncc1C [Example I-107] | 100 to 1000 | 10 to 100 | – |
| CS(=O)(=O)c1ccc(F)c(CNc2nc(Nc3cn[nH]c3)ncc2Cl)c1 [Example I-98] | 100 to 1000 | 10 to 100 | – |
| CNC(=O)Cn1cc(Nc2ncc(Cl)c(NCc3cc(F)cc(F)c3)n2)cn1 [Example I-190] | 100 to 1000 | 100 to 1000 | – |
| CCOc1ccc(F)c(CNc2nc(Nc3cnn(CC(=O)NC)c3)ncc2Cl)c1F [Example I-269] | 1000 to 10000 | 10 to 100 | – |
| COc1ccc(Cl)c(CNc2ccnc(Nc3cnn(CC(=O)N[C@@H](C)CO)c3)n2)c1F [Example I-122] | 100 to 1000 | ≤ 10 | – |

| SMILES | IC50 [1] [nM] | IC50 [2, 3] [nM] | IC50 ([2]; read-out: TYK2 IC50) [nM] |
| --- | --- | --- | --- |
| COc1ccc(S(C)(=O)=O)cc1CNc1nc(Nc2cnn(CCO)c2)ncc1F [Example I-88] | 100 to 1000 | 10 to 100 | – |
| COc1ccc(Cl)c(CNc2ccnc(Nc3cnn(C)c3)n2)c1F [Example I-61] | 100 to 1000 | 10 to 100 | – |
| Cc1ccc(F)c(CNc2nc(Nc3cnn(CC(N)=O)c3)ncc2Cl)c1F [Example I-282] | 1000 to 10000 | 10 to 100 | – |
| CN(C)C(=O)Cn1cc(Nc2ncc(Cl)c(NCc3cc(Br)cc(F)c3F)n2)cn1 [Example I-263] | 100 to 1000 | 100 to 1000 | – |
| O=C(O)Cn1cc(Nc2ncc(Cl)c(NCc3cc(F)cc(C(F)(F)F)c3)n2)cn1 [Example I-275] | 1000 to 10000 | 100 to 1000 | – |
| Cn1cc(Nc2ncc(Cl)c(NCc3cc(S(C)(=O)=O)ccc3F)n2)cn1 [Example I-99] | 100 to 1000 | 10 to 100 | – |
| OCCn1cc(Nc2ncc(Cl)c(NCc3cccnc3)n2)cn1 [Example I-255] | 1000 to 10000 | 100 to 1000 | – |
| O=C(Cn1cc(Nc2nccc(NCc3c(F)cccc3Cl)n2)cn1)NCCF [Example I-140] | 1000 to 10000 | 10 to 100 | – |
| CNC(=O)Cn1cc(Nc2ncc(Cl)c(NCc3c(F)ccc(C)c3F)n2)cn1 [Example I-284] | 1000 to 10000 | 10 to 100 | – |
| Cn1cc(Nc2nccc(NCc3c(Cl)ccc(F)c3F)n2)cn1 [Example I-68] | 100 to 1000 | 10 to 100 | – |
| C[C@H](CO)NC(=O)Cn1cc(Nc2nccc(NCc3c(F)cccc3Cl)n2)cn1 [Example I-106] | 1000 to 10000 | ≤ 10 | – |
| CC(C)N(C)C(=O)Cn1cc(Nc2ncc(F)c(NCc3c(F)cc(F)cc3F)n2)cn1 [Example I-59] | 1000 to 10000 | ≤ 10 | – |
| NC(=O)Cn1cc(Nc2ncc(Cl)c(NCc3ccccc3CO)n2)cn1 [Example I-288] | 1000 to 10000 | 100 to 1000 | – |
| O=C(Cn1cc(Nc2ncc(Cl)c(NCc3ccccc3)n2)cn1)N1CC2COCC2C1 (stereo not drawn) [Example I-188] | 1000 to 10000 | 10 to 100 | – |
| Cn1cc(Nc2ncc(F)c(NCc3cccc(C#N)c3)n2)cn1 [Example I-183] | 1000 to 10000 | 10 to 100 | – |
| CC(C)NC(=O)Cn1cc(Nc2nccc(NCc3cccc(OC(F)F)c3)n2)cn1 [Example I-67] | > 10000 | 10 to 100 | < 100 |
| COc1ccc(F)c(CNc2nc(Nc3cnn(CCO)c3)ncc2C)c1F [Example I-304] | 10 to 100 | ≤ 10 | – |
| Cn1cc(Nc2ncc(Cl)c(NCc3ccccc3F)n2)cn1 [Example I-173] | 100 to 1000 | 100 to 1000 | – |
| O=C(Cn1cc(Nc2ncc(F)c(NCc3c(F)cc(F)cc3F)n2)cn1)NCC(F)(F)F [Example I-252] | > 10000 | 10 to 100 | – |
| [2H]C([2H])(O)C([2H])([2H])n1cc(Nc2ncc(Cl)c(NCc3c(F)cccc3F)n2)cn1 [Example I-234] | 100 to 1000 | 10 to 100 | – |
| CNC(=O)Cn1cc(Nc2ncc(Cl)c(NCc3cc(F)cc(C(F)(F)F)c3)n2)cn1 [Example I-189] | 1000 to 10000 | 100 to 1000 | – |

Second part, the compound after the results:

| IC50 [1] [nM] | IC50 [2, 3] [nM] | IC50 ([2]; read-out: TYK2 IC50) [nM] | SMILES |
| --- | --- | --- | --- |
| > 10000 | 1000 to 10000 | – | CS(=O)(=O)c1ccccc1CNc1nc(Nc2cnn(CC(F)(F)F)c2)ncc1Cl [Example I-475] |
| 1000 to 10000 | 100 to 1000 | – | O=C(Cn1cc(Nc2ncc(Cl)c(NCc3cccnc3)n2)cn1)N1CCOCC1 [Example I-337] |
| 100 to 1000 | 100 to 1000 | – | Fc1ccccc1CNc1nc(Nc2cn[nH]c2)ncc1Cl [Example I-369] |
| 100 to 1000 | 100 to 1000 | – | CS(=O)(=O)c1cccc(CNc2nc(Nc3cnn(CC(N)=O)c3)ncc2Cl)c1 [Example I-439] |
| 1000 to 10000 | 1000 to 10000 | – | CS(=O)(=O)c1ccccc1CNc1nc(Nc2cnn(CC(F)F)c2)ncc1F [Example I-477] |
| 1000 to 10000 | 1000 to 10000 | – | Cc1cnc(Nc2cnn(CC(F)F)c2)nc1NCc1cccc(F)c1F [Example I-347] |
| > 10000 | 10 to 100 | – | CC(C)N(C)C(=O)Cn1cc(Nc2nccc(NCc3c(F)cc(F)cc3F)n2)cn1 [Example I-317] |
| 1000 to 10000 | 10 to 100 | – | CS(=O)(=O)NCc1cccc(CNc2nc(Nc3cnn(CC(=O)N4CCOCC4)c3)ncc2Cl)c1 [Example I-396] |
| 1000 to 10000 | 10 to 100 | – | CC1(C)COCCN1C(=O)Cn1cc(Nc2ncc(F)c(NCc3c(F)cc(F)cc3F)n2)cn1 [Example I-309] |
| 1000 to 10000 | 10 to 100 | – | COc1ccc(F)c(CNc2nc(Nc3cnn(C)c3)ncc2F)c1F [Example I-383] |
| 1000 to 10000 | 10 to 100 | – | Cc1cccc(F)c1CNc1ccnc(Nc2cnn(C)c2)n1 [Example I-437] |
| 1000 to 10000 | 100 to 1000 | – | Cc1cnc(Nc2cnn(CCO)c2)nc1NCc1ccccc1S(C)(=O)=O [Example I-433] |
| 10 to 100 | ≤ 10 | – | OCCn1cc(Nc2ncc(Cl)c(NCc3c(F)ccc(F)c3F)n2)cn1 [Example I-373] |
| 1000 to 10000 | 100 to 1000 | – | Cc1cnc(Nc2cnn(CC(N)=O)c2)nc1NCc1ccccc1S(C)(=O)=O [Example I-434] |
| 1000 to 10000 | 10 to 100 | – | COc1ccc(F)c(CNc2nc(Nc3cnn(C)c3)ncc2Cl)c1F [Example I-319] |
| 100 to 1000 | 10 to 100 | – | Cc1cnc(Nc2cnn(C)c2)nc1NCc1c(F)cccc1F [Example I-418] |
| 100 to 1000 | 100 to 1000 | – | COc1c(F)cccc1CNc1nc(Nc2cnn(CC(N)=O)c2)ncc1Cl [Example I-404] |
| > 10000 | 100 to 1000 | – | COc1ccc(F)c(CNc2nc(Nc3cnn(CCOC(C)C)c3)ncc2F)c1F [Example I-394] |
| 1000 to 10000 | 10 to 100 | – | CN(C)C(=O)Cn1cc(Nc2ncc(Cl)c(NCc3cccc(OCC#N)c3)n2)cn1 [Example I-365] |
| 100 to 1000 | 100 to 1000 | – | Cn1cc(Nc2ncc(F)c(NCc3cc(F)ccc3S(C)(=O)=O)n2)cn1 [Example I-487] |
| 1000 to 10000 | 1000 to 10000 | – | CNC(=O)Cn1cc(Nc2ncc(Cl)c(NCc3ccccc3S(C)(=O)=O)n2)cn1 [Example I-451] |
| 1000 to 10000 | 100 to 1000 | – | N#CCOc1cccc(CNc2nc(Nc3cnn(CC(N)=O)c3)ncc2Cl)c1 [Example I-362] |
| 100 to 1000 | 100 to 1000 | – | Cn1cc(Nc2ncc(Cl)c(NCc3cccnc3F)n2)cn1 [Example I-406] |
| 1000 to 10000 | 10 to 100 | – | NC(=O)Cn1cc(Nc2ncc(F)c(NCc3c(F)cccc3F)n2)cn1 [Example I-380] |
